Reference: ChEMBL document CHEMBL5042492, “Noncovalent CDK12/13 dual inhibitors-based PROTACs degrade CDK12-Cyclin K complex and induce synthetic lethality with PARP inhibitor” (Eur J Med Chem, 2022)
Active and inactive are the calls of the source. No cut-off for these calls is given here.

Assays:
[1] = molecular target: T1, Protein cereblon/Cyclin-K/Cyclin-dependent kinase 12 (Homo sapiens, UniProt O75909+Q9NYV4+Q96SW2); test: Protac activity at human CRBN/CDK12/CycK in human Bel-7402 cells assessed as degradation of CDK12 at 3 uM measured after 24 hrs by Western blotting assay; format: cell-based
[2] = molecular target: T1, Protein cereblon/Cyclin-K/Cyclin-dependent kinase 12; test: Protac activity at human CRBN/CDK12/CycK in human MDA-MB-231 cells assessed as degradation of CDK12 at 3 uM measured after 24 hrs by Western blotting assay; format: cell-based
MDA-MB-231 [3] = test: Antiproliferative activity against human MDA-MB-231 cells at 1 uM for 10 days by SRB staining based clone formation assay relative to control; format: functional; settings: MDA-MB-231, 240 h, time 10 day
MDA-MB-231 [4] = test: Antiproliferative activity against human MDA-MB-231 cells at 3 uM for 10 days by SRB staining based clone formation assay relative to control; format: functional; settings: MDA-MB-231, 240 h, time 10 day

T1 sequence (O75909 whole entry, looked up): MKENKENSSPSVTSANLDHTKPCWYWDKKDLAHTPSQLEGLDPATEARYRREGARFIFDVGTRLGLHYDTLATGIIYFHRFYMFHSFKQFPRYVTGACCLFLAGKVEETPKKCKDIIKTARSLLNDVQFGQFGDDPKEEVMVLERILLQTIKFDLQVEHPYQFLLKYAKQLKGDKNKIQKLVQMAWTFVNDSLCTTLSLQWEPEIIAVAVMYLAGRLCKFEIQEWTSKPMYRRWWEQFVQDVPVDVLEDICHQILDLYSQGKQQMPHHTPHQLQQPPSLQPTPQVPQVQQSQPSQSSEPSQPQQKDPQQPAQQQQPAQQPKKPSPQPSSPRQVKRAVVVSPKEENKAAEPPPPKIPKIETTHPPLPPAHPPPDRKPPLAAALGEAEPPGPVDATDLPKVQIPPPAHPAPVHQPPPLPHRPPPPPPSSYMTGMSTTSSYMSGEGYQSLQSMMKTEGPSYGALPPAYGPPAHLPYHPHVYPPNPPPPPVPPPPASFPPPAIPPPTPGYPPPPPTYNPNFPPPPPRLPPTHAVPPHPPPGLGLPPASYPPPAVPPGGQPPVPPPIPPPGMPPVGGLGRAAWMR
T1 sequence (Q96SW2 whole entry, looked up): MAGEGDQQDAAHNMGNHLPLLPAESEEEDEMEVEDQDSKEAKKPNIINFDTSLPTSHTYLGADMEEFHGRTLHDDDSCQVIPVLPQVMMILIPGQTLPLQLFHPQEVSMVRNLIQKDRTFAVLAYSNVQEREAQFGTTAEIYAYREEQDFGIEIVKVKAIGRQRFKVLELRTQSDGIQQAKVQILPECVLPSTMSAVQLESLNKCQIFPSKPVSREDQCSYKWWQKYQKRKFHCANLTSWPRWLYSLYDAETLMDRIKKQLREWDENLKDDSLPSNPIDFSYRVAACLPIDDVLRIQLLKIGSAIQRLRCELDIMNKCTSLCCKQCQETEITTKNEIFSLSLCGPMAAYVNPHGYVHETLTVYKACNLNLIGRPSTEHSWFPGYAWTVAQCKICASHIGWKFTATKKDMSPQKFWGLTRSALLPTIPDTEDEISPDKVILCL
T1 sequence (Q9NYV4 whole entry, looked up): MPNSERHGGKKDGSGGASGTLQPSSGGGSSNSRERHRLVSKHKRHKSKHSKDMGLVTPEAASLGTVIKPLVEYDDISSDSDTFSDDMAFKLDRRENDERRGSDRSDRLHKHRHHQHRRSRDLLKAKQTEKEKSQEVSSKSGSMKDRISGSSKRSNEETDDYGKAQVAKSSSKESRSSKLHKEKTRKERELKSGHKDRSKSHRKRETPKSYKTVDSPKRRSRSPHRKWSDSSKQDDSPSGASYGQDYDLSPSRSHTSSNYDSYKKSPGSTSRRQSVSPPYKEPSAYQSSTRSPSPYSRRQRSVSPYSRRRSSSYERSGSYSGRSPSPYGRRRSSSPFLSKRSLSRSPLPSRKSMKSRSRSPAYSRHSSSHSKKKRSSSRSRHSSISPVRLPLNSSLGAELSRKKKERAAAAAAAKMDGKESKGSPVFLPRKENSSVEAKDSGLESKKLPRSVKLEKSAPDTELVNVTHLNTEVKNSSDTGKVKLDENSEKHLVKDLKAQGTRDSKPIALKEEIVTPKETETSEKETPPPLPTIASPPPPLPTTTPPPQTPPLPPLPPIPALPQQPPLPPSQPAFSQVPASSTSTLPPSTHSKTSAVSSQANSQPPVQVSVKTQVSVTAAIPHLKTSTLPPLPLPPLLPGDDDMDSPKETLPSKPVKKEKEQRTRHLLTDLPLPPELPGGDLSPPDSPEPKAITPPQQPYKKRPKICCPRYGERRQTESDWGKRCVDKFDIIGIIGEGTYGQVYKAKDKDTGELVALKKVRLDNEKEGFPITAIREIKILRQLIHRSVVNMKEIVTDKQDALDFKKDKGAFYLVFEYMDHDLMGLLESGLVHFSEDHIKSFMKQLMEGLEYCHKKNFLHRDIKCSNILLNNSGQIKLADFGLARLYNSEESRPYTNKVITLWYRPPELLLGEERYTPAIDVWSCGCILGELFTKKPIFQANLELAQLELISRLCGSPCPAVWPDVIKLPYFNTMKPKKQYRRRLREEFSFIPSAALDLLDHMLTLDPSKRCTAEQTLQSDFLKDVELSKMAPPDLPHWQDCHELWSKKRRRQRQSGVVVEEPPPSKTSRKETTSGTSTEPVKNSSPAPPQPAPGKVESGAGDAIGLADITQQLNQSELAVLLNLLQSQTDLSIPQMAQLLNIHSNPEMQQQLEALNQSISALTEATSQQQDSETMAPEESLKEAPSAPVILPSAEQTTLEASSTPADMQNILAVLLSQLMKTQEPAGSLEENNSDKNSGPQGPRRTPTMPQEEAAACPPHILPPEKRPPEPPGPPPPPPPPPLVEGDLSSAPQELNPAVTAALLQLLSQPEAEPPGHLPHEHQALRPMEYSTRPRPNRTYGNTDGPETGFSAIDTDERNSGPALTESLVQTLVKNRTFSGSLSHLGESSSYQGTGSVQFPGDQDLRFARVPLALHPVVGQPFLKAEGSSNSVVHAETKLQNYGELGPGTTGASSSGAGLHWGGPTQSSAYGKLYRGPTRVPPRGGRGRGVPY

CC(C)n1cnc2c(NCc3nc4cc(F)c(NCCCCCCCCCCNC(=O)COc5cccc6c5C(=O)N(C5CCC(=O)NC5=O)C6=O)cc4[nH]3)nc(N3CCOCC3)nc21 (centres undefined)
Activity [1]: Active
Activity [2]: Active

O=C(c1cc(Cc2n[nH]c(=O)c3ccccc23)ccc1F)N1CCN(C(=O)C2CC2)CC1 [OLAPARIB]
inhibition at 1 µM (MDA-MB-231 [3]): 12.4%
inhibition at 3 µM (MDA-MB-231 [4]): 98%
